Assay results taken from PMC11747586, “Synthesis and Investigation of Peptide–Drug Conjugates Comprising Camptothecin and a Human Protein‐Derived Cell‐Penetrating Peptide” (Chemical Biology & Drug Design, 2025).
Positions of bridges follow the written chain, without caps; N, C: chain ends. Residues, ends and D or L forms follow the SMILES beside them.

Experiments:
human RBCs = test: Red blood cell (RBC) lysis, released hemoglobin; details: red cells of human, 72 h
Procedure: Cell death was measured using resazurin, with 0.1% (v/v) Triton X‐100 as a control for 100% cell death. Data points are expressed as mean ± SD for at least two biological replicates. Dose response curves were fitted using [inhibitor] versus response with variable slope, Graphpad Prism v10. […] RBC lysis was determined by measuring released hemoglobin, with 0.1% (v/v) Triton X‐100 as a control for 100% cell lysis. Melittin was included as a membranolytic control. Data points are expressed as mean ± SD for two technical replicates. Dose response curves were fitted using [inhibitor] versus response with variable slope, Graphpad Prism v10. […] CC50 values are expressed as mean (SEM). […]
Red blood cell (RBC) lysis
Human RBCs and serum were obtained from healthy volunteers via the Red Cross Lifeblood,
Brisbane, Australia. RBCs were washed three times with PBS and stored in culture medium (RPMI

[1] = Parallel artificial membrane permeability assay (PAMPA); format: in vitro ADME; details: PAMPA
Procedure: FIGURE 4 (A) Membrane permeability and cellular uptake of PDCs, scaffold peptides, and CPT. Compounds were added to PAMPA wells (4 μM) and incubated for 4 h. Supernatant from apical and basolateral sides of the membrane were collected and analyzed using LC–MS. The amount in the combined soluble fractions was compared to the starting amount to determine % recovery, and the apparent permeability (Papp) was calculated as before (Sevin et al. [2013]). Data is expressed as mean ± SD from a single experiment with three technical replicates. (B) Internalization/cell membrane association of PDCs 12–14 and PDIP with HT144 cells. Cells were treated with PDIP or PDCs (4 μM) for 1 h, washed to remove extracellular compound, then extracted with 75% (v/v) MeCN in mQH2O (containing 1.75% (v/v) TFA), to recover soluble peptide or PDC from precipitated cell proteins. The relative amount of internalized peptide or PDC was determined by integrating area under the curve (AUC) for the [M + 6H]^6+ m/z peak (for the intact mass) using time of flight–mass spectrometry (see Figure S2). […] Data is expressed as mean ± SD from a single experiment with three technical replicates for each treatment and control and was analyzed with ANOVA (Tukey multiple comparisons; **p < 0.01, *p < 0.05). (C) Detection of intracellular CPT following 6 h treatment of HT144 cells with CPT and PDCs 12 and 14. […] Data is expressed as mean ± SD from a single experiment with three technical replicates for each treatment and was analyzed with ANOVA (Fisher multiple paired comparisons; **p < 0.01, *p < 0.05). TEXT PRINTED IN THE PICTURE: (A) PDIP: % recovered (soluble fractions): 94 | (A) 12: % recovered (soluble fractions): 58 | (A) 14: % recovered (soluble fractions): 33 | (A) 15: % recovered (soluble fractions): 40 | (A) c[A] PDIP: % recovered (soluble fractions): 34 | (A) CPT: % recovered (soluble fractions): 92 […]
For the first assay, the PDCs (12–15), scaffold peptides and CPT (4 μM) were added to the apical side of PAMPA monolayers and incubated for 4 h. […] PDIP, CPT, and PDCs 12 and 14 had high permeability (Papp ≥ 2 × 10^−6 cm/s), highlighting that these PDCs maintain membrane permeability with the CPT cargo attached. […] Reliable permeability data were not obtained for PDC 13 because of poor recovery of the PDC from soluble fractions, and degradation during the 4 h PAMPA experiment. […] Instability of the carbonate linkage within CPT conjugates containing a dipeptide linker has been previously reported (Walker et al. [2002]), highlighting the potential incompatibility of this drug–linker combination for CPT PDCs. Considering the observed degradation of 13 in the cell‐free assay, it is also possible that extracellular degradation occurred during the cytotoxicity assays.
Parallel artificial membrane permeability assay (PAMPA)
PAMPA was performed according to the manufacturer instructions for the BD Gentest pre-coated PAMPA plate system (BD Biosciences), as previously described.16 Briefly, peptides and PDCs (4 μM in PBS) were added to the apical side of PAMPA wells and incubated for 4 h at 37 °C, 5% CO2 with 95% humidity. Soluble fractions were recovered from the apical and basolateral sides, and compound concentration was quantified using a Shimadzu LCMS-2020 instrument with a Phenomenex 5 µm C18 / 300 Å / 150 x 2 mm LC column. Data was collected from three technical replicates for each compound. The % recovery was determined from (combined from apical and basolateral fractions) relative to the starting concentration:
Recovery rate : R (%) = (C஺ ×V஺ +C஻ ×V஻ )× 100 where CA and CB are the apical and basolateral concentrations (µM), VA and VB are the apical and basolateral volumes (mL), and C0 is the initial concentration (µM).
The apparent permeability coefficient (Papp) was calculated using the following equations17 and where A is the membrane surface area (cm2): […]

cells = test: cells
Procedure: Cell death was measured using resazurin, with 0.1% (v/v) Triton X‐100 as a control for 100% cell death. Data points are expressed as mean ± SD for at least two biological replicates. Dose response curves were fitted using [inhibitor] versus response with variable slope, Graphpad Prism v10. […] RBC lysis was determined by measuring released hemoglobin, with 0.1% (v/v) Triton X‐100 as a control for 100% cell lysis. Melittin was included as a membranolytic control. Data points are expressed as mean ± SD for two technical replicates. Dose response curves were fitted using [inhibitor] versus response with variable slope, Graphpad Prism v10. […] CC50 values are expressed as mean (SEM).
Cell death was measured using resazurin, with 0.1% (v/v) Triton X-100 as a control for 100% cell death. Data points are expressed as mean ± SD for at least two biological replicates. CC50 values are expressed as mean (SEM). Note: CPT-dipeptide-PDIP was not included in this study. c[A]PDIP is a desulfurized variant of cPDIP 2 (see Table S1) to prevent the presence of free thiol during assays. […]
HaCaT cells were grown in DMEM medium and HT144 cells were grown in RPMI medium supplemented with 2 mM L-glutamine and 10 mM sodium pyruvate. Media were supplemented with 10% (v/v) fetal bovine serum, 100 units/mL of penicillin and […] of streptomycin. Flasks of cultured cells were maintained in a humidified incubator (37 °C, 5% CO2) and passaged every 2–3 days to maintain cultures between 20–90% confluence. Cell line identity was verified by comparing […]
STR profiles of the cell lines against database entries from the DSMZ-German collection of microorganisms and cell cultures, GmBH https://celldive.dsmz.de/str/browse.
Toxicity to the HT144 and HaCaT cell lines was tested following peptide treatment by measuring the metabolism of resazurin into fluorescent resorufin. The assays were performed with 5000 cells/well (96-well plate) in serum free media. Cells were incubated with serially diluted peptides, PDCs or […]

For `CC[C@H](C)[C@@H]1NC(=O)[C@H](CCCCN)NC(=O)[C@H](CCCCN)NC(=O)[C@H](Cc2ccc(O)cc2)NC(=O)[C@H](CC(C)C)NC(=O)[C@@H]2CCCN2C(=O)CNC(=O)CNC(=O)[C@@H](NC(=O)CN)CSSC[C@@H](C(=O)N[C@@H](CCC(=O)O)C(=O)N[C@@H](CO)C(N)=O)NC(=O)[C@H](CC(C)C)NC(=O)[C@H](CCCCN)NC(=O)[C@H](CCCCN)NC(=O)[C@H]([C@@H](C)CC)NC(=O)[C@H]([C@@H](C)CC)NC(=O)[C@H](CCCCN)NC(=O)[C@H](CCCCN)NC(=O)[C@H](Cc2ccc(O)cc2)NC(=O)[C@H](CC(C)C)NC(=O)[C@@H]2CCCN2C(=O)[C@H](C)NC(=O)CNC(=O)CNC(=O)[C@H](CO)NC(=O)CNC(=O)CNC(=O)[C@H](CO)NC(=O)[C@H](CCC(=O)O)NC(=O)[C@H](CC(C)C)NC(=O)[C@H](CC(C)C)NC(=O)[C@H](CCCCN)NC(=O)[C@H](CCCCN)NC(=O)[C@H]([C@@H](C)CC)NC1=O` [PDIP, reference compound] (H-GCGGPLYKKIIKKLLESGGSGGAPLYKKIIKKLCES-NH2; disulfide 2-34; N-terminus assumed), the “HC10 (minimal hemolytic concentration) RBC” value (human RBCs) was ~ 32 μM, the Papp at 4 h, 4 μM [1] was at least 2 ×10⁻⁶ cm/s and the CC50 (cells) was 4.83 µM.
